Results on six substances are retold here after patent publication US9833497B2, “Human originated EGF domain proteins and use of the same” (CHENGDU SOURCEBIO LIMITED-LIABILITY COMPANY, priority 2013, dated 2017).

Common to all, as to format: cell-based
For one experiment, the system named is E. coli DH5α. The experiment in a line: Antibacterial activity: MIC and growth curve against E. coli DH5α in 96-well plate. The conditions noted are these: minimal inhibitory concentration against E. coli DH5α; 96-well plate, 5×10^5 CFU/mL, 37° C., judged after 8 h. A digest of the protocol:
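MIC taken as lowest protein level with no bacterial growth, tracked by A600 every 30 min during 37 °C, 175 rpm culture. Two-fold protein series 50-12.5 μg/mL final, triplicate wells, against 5×10^5 CFU/mL of LB-washed mid-log cells.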

The next experiment relates to E. coli BL21. The experiment in a line: MIC against Gram-negative bacteria: E. coli BL21. The conditions noted are these: 5×10^5 CFU/mL. A digest of the protocol: (§1)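 MIC = lowest concentration of recombinant protein showing no growth. Test proteins: purified human-derived EGF domain proteins, two-fold dilution series, three wells per concentration; inoculum 5×10^5 CFU/mL in LB; incubation 37° C with shaking at 175 rpm.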

The next experiment relates to Pseudomonas aeruginosa. The experiment in a line: MIC against Gram-negative bacteria: Pseudomonas aeruginosa. The settings on record: 5×10^5 CFU/mL. Summed up:
as §1

The subject of the next experiment is Klebsiella pneumonia. As to the kind of experiment: MIC against Gram-negative bacteria: Klebsiella pneumonia. The conditions noted are these: 5×10^5 CFU/mL. Summed up:
as §1

A further experiment relates to Enterobacter cloacae. The experiment in a line: MIC against Gram-negative bacteria: Enterobacter cloacae. The conditions noted are these: 5×10^5 CFU/mL. A digest of the protocol: as §1
In the next experiment the test system is Aeromonas hydrophila. As to the kind of experiment: MIC against Gram-negative bacteria: Aeromonas hydrophila. The conditions noted are these: 5×10^5 CFU/mL. A digest of the protocol:
as §1

The subject of another experiment is Citrobacter diversus. The experiment in a line: MIC against Gram-negative bacteria: Citrobacter diversus. The conditions noted are these: 5×10^5 CFU/mL. A digest of the protocol:
as §1

For a further experiment, the system named is Moraxella catarrhalis. As to the kind of experiment: MIC against Gram-negative bacteria: Moraxella catarrhalis. The settings on record: 5×10^5 CFU/mL. Summed up: as §1
For another experiment, the system named is Proteus mirabilis. The experiment in a line: MIC against Gram-negative bacteria: Proteus mirabilis. The settings on record: 5×10^5 CFU/mL. A digest of the protocol: as §1
In the next experiment the test system is Proteus vulgaris. As to the kind of experiment: MIC against Gram-negative bacteria: Proteus vulgaris. The settings on record: 5×10^5 CFU/mL. Summed up: as §1
The next experiment concerns Serratia marcescens. As to the kind of experiment: MIC against Gram-negative bacteria: Serratia marcescens. The settings on record: 5×10^5 CFU/mL. Summed up: as §1
Setting [1] is: E. coli BL21, 10 h cultivation at 37° C.
[2] abbreviates: P. aeruginosa, 10 h cultivation at 37° C.
The mark [3] stands for this setting: K. pneumonia, 10 h cultivation at 37° C.
Setting [4] is: E. cloacae, 10 h cultivation at 37° C.
Where [5] appears, read: A. hydrophila, 10 h cultivation at 37° C.
Setting [6] is: C. diversus, 10 h cultivation at 37° C.
[7] abbreviates: M. catarrhalis, 10 h cultivation at 37° C.
The mark [8] stands for this setting: P. mirabilis, 10 h cultivation at 37° C.
Where [9] appears, read: P. vulgaris, 10 h cultivation at 37° C.
Setting [10] is: S. marcescens, 10 h cultivation at 37° C.
The mark [11] stands for this setting: 10 h cultivation at 37° C., two-fold serial dilution.

As usually defined, the MIC is the lowest concentration found to suppress growth. Low values mean a more susceptible organism, high ones a less susceptible organism. In the experiment on E. coli DH5α, “PRT268 (SFKCRCDSGFALDSEERNCTDIDE; listed as Homo sapiens)” showed an MIC of 12.5 µg/mL. In addition, the “MIC (μg/mL) E. coli BL21” value against E. coli BL21 (setting [1]) was 25 µg/mL. For the same substance, the “MIC (μg/mL) P. aeruginosa” value with Pseudomonas aeruginosa (setting [2]) came out at 12.5 µg/mL. Moreover, the “MIC (μg/mL) K. pneumonia” value against Klebsiella pneumonia (setting [3]) stood at 25 µg/mL. Besides, in the experiment with Enterobacter cloacae (setting [4]), the “MIC (μg/mL) E. cloacae” value turned out to be 50 µg/mL. Moreover, the “MIC (μg/mL) A. hydrophila” value against Aeromonas hydrophila (setting [5]) turned out to be 25 µg/mL. The “MIC (μg/mL) C. diversus” value in the experiment with Citrobacter diversus (setting [6]) stood at 12.5 µg/mL. In addition, in the experiment on Moraxella catarrhalis (setting [7]), the “MIC (μg/mL) M. catarrhalis” value was found to be 25 µg/mL. The “MIC (μg/mL) P. mirabilis” value against Proteus mirabilis (setting [8]) was found to be 50 µg/mL. Moreover, the “MIC (μg/mL) P. vulgaris” value in the experiment with Proteus vulgaris (setting [9]) turned out to be 12.5 µg/mL. The “MIC (μg/mL) S. marcescens” value in the experiment on Serratia marcescens (setting [10]) was 12.5 µg/mL.

As to “PRT1048 (YGKRCVPCKCANHSFCHPSNGTCYCLAGWTGPDCS; listed as Homo sapiens)”, in the experiment with E. coli DH5α, the MIC stood at 12.5 µg/mL. The “MIC E. coli BL21” value against E. coli BL21 (setting [11]) came out at 25 µg/mL. In the experiment with Pseudomonas aeruginosa (setting [11]), the “MIC P. aeruginosa” value was 50 µg/mL. Further, the “MIC K. pneumonia” value in the experiment with Klebsiella pneumonia (setting [11]) is 25 µg/mL. Besides, in the experiment on Enterobacter cloacae (setting [11]), the “MIC E. cloacae” value is 12.5 µg/mL. Besides, in the experiment on Aeromonas hydrophila (setting [11]), the “MIC A. hydrophila” value was determined as 25 µg/mL. For the same substance, in the experiment on Citrobacter diversus (setting [11]), the “MIC C. diversus” value is 50 µg/mL. Besides, the “MIC M. catarrhalis” value in the experiment on Moraxella catarrhalis (setting [11]) amounted to 25 µg/mL. Besides, the “MIC P. mirabilis” value in the experiment with Proteus mirabilis (setting [11]) amounted to 12.5 µg/mL. For the same substance, the “MIC P. vulgaris” value against Proteus vulgaris (setting [11]) is 50 µg/mL. Further, the “MIC S. marcescens” value in the experiment with Serratia marcescens (setting [11]) was found to be 12.5 µg/mL.

“PRT555 (CDCSAAGTQGNACRKDPRVGRCLCKPNFQGTHCELCAPGFYGPGCQP; listed as Homo sapiens)” gave an MIC against E. coli DH5α of 50 µg/mL. The “MIC against E. coli BL21” value in the experiment on E. coli BL21 (96-well plate, 37° C., 10 h) amounted to 25 µg/mL. Also, the “MIC against P. aeruginosa” value against Pseudomonas aeruginosa (96-well plate, 37° C., 10 h) was 12.5 µg/mL. Moreover, the “MIC against K. pneumonia” value against Klebsiella pneumonia (96-well plate, 37° C., 10 h) turned out to be 25 µg/mL. Moreover, the “MIC against E. cloacae” value in the experiment on Enterobacter cloacae (96-well plate, 37° C., 10 h) was 50 µg/mL. In addition, the “MIC against A. hydrophila” value against Aeromonas hydrophila (96-well plate, 37° C., 10 h) was determined as 25 µg/mL. Further, the “MIC against C. diversus” value in the experiment on Citrobacter diversus (96-well plate, 37° C., 10 h) came to 12.5 µg/mL. Moreover, the “MIC against M. catarrhalis” value in the experiment on Moraxella catarrhalis (96-well plate, 37° C., 10 h) was found to be 25 µg/mL. For the same substance, in the experiment on Proteus mirabilis (96-well plate, 37° C., 10 h), the “MIC against P. mirabilis” value was found to be 50 µg/mL. Also, in the experiment with Proteus vulgaris (96-well plate, 37° C., 10 h), the “MIC against P. vulgaris” value was found to be 25 µg/mL. Also, the “MIC against S. marcescens” value against Serratia marcescens (96-well plate, 37° C., 10 h) was 12.5 µg/mL.

“PRT726 (LPPPCRCMHGGNCYFDETDLPKCKCPSGYTGKYCE; listed as Homo sapiens)” showed an MIC in the experiment with E. coli DH5α of 12.5 µg/mL. The “MIC E. coli BL21” value against E. coli BL21 (96-well plate, 37° C., 10 h) came to 50 µg/mL. Further, the “MIC P. aeruginosa” value against Pseudomonas aeruginosa (96-well plate, 37° C., 10 h) was found to be 25 µg/mL. For the same substance, the “MIC K. pneumonia” value with Klebsiella pneumonia (96-well plate, 37° C., 10 h) stood at 25 µg/mL. For the same substance, in the experiment with Enterobacter cloacae (96-well plate, 37° C., 10 h), the “MIC E. cloacae” value worked out at 12.5 µg/mL. Also, the “MIC A. hydrophila” value against Aeromonas hydrophila (96-well plate, 37° C., 10 h) worked out at 25 µg/mL. Further, the “MIC C. diversus” value with Citrobacter diversus (96-well plate, 37° C., 10 h) worked out at 50 µg/mL. In addition, the “MIC M. catarrhalis” value in the experiment on Moraxella catarrhalis (96-well plate, 37° C., 10 h) is 25 µg/mL. Further, the “MIC P. mirabilis” value against Proteus mirabilis (96-well plate, 37° C., 10 h) came out at 12.5 µg/mL. Besides, in the experiment on Proteus vulgaris (96-well plate, 37° C., 10 h), the “MIC P. vulgaris” value amounted to 50 µg/mL. The “MIC S. marcescens” value in the experiment on Serratia marcescens (96-well plate, 37° C., 10 h) worked out at 25 µg/mL.

Consider “PRT318 (DVDECEKNPCAGGECINNQGSYTCQCRAGYQSTLTRTECR; listed as Homo sapiens)”, for which the MIC in the experiment with E. coli DH5α came out at 12.5 µg/mL; against E. coli BL21 (setting [1]), 12.5 µg/mL; against Pseudomonas aeruginosa (setting [2]), 12.5 µg/mL; against Klebsiella pneumonia (setting [3]), 50 µg/mL; against Enterobacter cloacae (setting [4]), 12.5 µg/mL; against Aeromonas hydrophila (setting [5]) it was 50 µg/mL. The MIC against Citrobacter diversus (setting [6]) amounted to 12.5 µg/mL; against Moraxella catarrhalis (setting [7]) it was 50 µg/mL; in the experiment on Proteus mirabilis (setting [8]) it was 12.5 µg/mL; with Proteus vulgaris (setting [9]), 25 µg/mL; with Serratia marcescens (setting [10]) it was 50 µg/mL.

In the experiment on E. coli DH5α, “PRT481 (EITACSSSPCFHDGTCVLDKAGSYKCACLAGYTGQRCE; listed as Homo sapiens)” showed an MIC of 25 µg/mL. For the same substance, the “MIC against E. coli BL21” value in the experiment on E. coli BL21 (96-well plate, 37° C., 10 h) was determined as 12.5 µg/mL. The “MIC against P. aeruginosa” value in the experiment on Pseudomonas aeruginosa (96-well plate, 37° C., 10 h) stood at 25 µg/mL. Also, the “MIC against K. pneumonia” value with Klebsiella pneumonia (96-well plate, 37° C., 10 h) was 50 µg/mL. Moreover, the “MIC against E. cloacae” value in the experiment with Enterobacter cloacae (96-well plate, 37° C., 10 h) was 12.5 µg/mL. The “MIC against A. hydrophila” value against Aeromonas hydrophila (96-well plate, 37° C., 10 h) amounted to 50 µg/mL. The “MIC against C. diversus” value against Citrobacter diversus (96-well plate, 37° C., 10 h) was 12.5 µg/mL. Also, the “MIC against M. catarrhalis” value in the experiment on Moraxella catarrhalis (96-well plate, 37° C., 10 h) amounted to 50 µg/mL. The “MIC against P. mirabilis” value against Proteus mirabilis (96-well plate, 37° C., 10 h) turned out to be 12.5 µg/mL. Further, the “MIC against P. vulgaris” value against Proteus vulgaris (96-well plate, 37° C., 10 h) was determined as 50 µg/mL. Besides, the “MIC against S. marcescens” value in the experiment on Serratia marcescens (96-well plate, 37° C., 10 h) was found to be 12.5 µg/mL.
